Experiment [1] deals with T1, androgen receptor (AR) (Homo sapiens, UniProt P10275, T878A).
T1 construct: endogenous in cells; host or cells: LNCaP
T1 sequence (P10275 1-920 T878A): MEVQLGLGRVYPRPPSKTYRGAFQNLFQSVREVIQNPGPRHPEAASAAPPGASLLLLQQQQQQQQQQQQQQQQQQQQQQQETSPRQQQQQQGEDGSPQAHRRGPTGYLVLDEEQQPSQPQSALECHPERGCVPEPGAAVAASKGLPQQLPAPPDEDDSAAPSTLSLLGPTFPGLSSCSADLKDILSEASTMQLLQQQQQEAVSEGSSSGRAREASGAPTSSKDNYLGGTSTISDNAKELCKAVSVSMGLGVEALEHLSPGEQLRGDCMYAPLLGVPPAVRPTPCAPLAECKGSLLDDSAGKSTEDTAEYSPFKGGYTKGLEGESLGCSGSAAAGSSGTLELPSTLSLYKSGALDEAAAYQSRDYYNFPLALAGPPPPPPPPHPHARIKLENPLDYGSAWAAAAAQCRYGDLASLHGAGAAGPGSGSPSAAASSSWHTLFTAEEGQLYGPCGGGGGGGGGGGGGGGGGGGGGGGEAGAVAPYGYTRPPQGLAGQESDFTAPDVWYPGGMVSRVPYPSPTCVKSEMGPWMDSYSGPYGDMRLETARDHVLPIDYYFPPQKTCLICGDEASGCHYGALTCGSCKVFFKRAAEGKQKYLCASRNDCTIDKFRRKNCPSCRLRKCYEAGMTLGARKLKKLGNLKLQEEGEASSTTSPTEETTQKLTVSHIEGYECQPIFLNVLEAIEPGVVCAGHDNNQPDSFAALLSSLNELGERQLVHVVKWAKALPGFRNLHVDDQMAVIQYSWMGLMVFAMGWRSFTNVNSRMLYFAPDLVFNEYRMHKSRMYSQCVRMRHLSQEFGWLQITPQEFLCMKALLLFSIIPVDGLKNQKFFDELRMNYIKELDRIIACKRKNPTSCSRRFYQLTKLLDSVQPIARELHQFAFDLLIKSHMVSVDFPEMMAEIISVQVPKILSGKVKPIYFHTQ
In words: Western blot analysis of AR expression in LNCaP cells. In kind it is cell-based. A general note: In western blotting, separated proteins are transferred to a membrane and probed.
Source text: Briefly, cells (for example, LNCap cells) are harvested either in 2× sodium dodecyl sulfate (SDS) loading buffer or in radioimmunoprecipitation assay (RIPA) lysis buffer (see “Antibodies: A Laboratory Manual”, E. Harlow and D. Lane, Cold Spring Harbor Laboratory, 1988) containing 10 micrograms/milliliter of benzamidine, 10 micrograms/milliliter of trypsin inhibitor, and 1 millimolar of phenylmethylsulfonyl fluoride (PMSF). Total protein (40 micrograms/sample, or as desired) from cell lysate is separated on a SDS-PAGE gel. After separation, proteins are transferred from the gel to a nitrocellulose membrane following standard Western blot procedures. The membrane is blocked with a suitable blocking agent (such as 10% non-fat milk in phosphate-buffered saline supplemented with 0.1% Tween-20 (PBST)) to reduce non-specific binding overnight. The membrane is incubated with a suitable primary antibody specific for human AR (for example, anti-human AR from BD-PharMingen) at 4 degrees Celsius overnight or at room temperature for 2 hours. […] The membrane is rinsed with PBST, and a suitable visualization procedure is used to detect the secondary antibody (for example, horseradish peroxidase can be detected with a colorimetric substrate or by a chemiluminescent substrate such as that provided by the enhanced chemiluminescence (ECL Plus) kit from Amersham). […] Quantification of the protein signals can be carried out by densitometry, using appropriate software (ImageJ software from the National Institutes of Health).
LNCaP cells from the above described experiment were harvested at designated times, cell lysate was prepared for Western blot analysis as described previously. A color detection method was subsequently employed to examine AR and actin protein signals in the membranes, and the resultant protein signals were quantitated by densitometry. In FIG. 4B, normalized AR signals (as relative to actin protein) are reported, which were expressed as a percentage of baseline (Day 0) value. […]
Cells were then harvested and AR protein was quantified by Western blot.

Experiment [2] deals with T1, androgen receptor (AR). In words: Specificity Western blot in LNCaP cell lysates, AR. As to conditions: 1 or 5 micromolar, 24 hours, presence or absence of DHT. It is filed as cell-based. The protocol: Human prostate cancer LNCaP cells and T47D cells were plated at a density of 7×10^5 cells per 60 millimeter tissue culture dish in […] medium containing 10% FBS. The medium was changed to RPMI or DME medium containing 10% charcoal-stripped serum 24 hours later to deplete cellular androgens or estrogens. After another 24 hours, treatment with the test compounds began. The test dose of ASC-J9 was 1, and 5 and micromolar. LNCap cells also received dihydrotestosterone (DHT) (3 nanomolar). Control cells received a corresponding amount of the vehicle, dimethylsulfoxide (DMSO) (<0.04%) for an equivalent exposure time. Cells were incubated with ASC-J9 for 24 hours, and were lysed in 250 microliters of 1×SDS/PAGE loading buffer. Approximately 40 micrograms of total cellular protein was loaded in each lane of a pre-cast gel (NuPAGE, Invitrogen). Protein separation and transfer were performed following the manufacturer's instructions.
For the LNCaP cell lysates, androgen receptor (AR) protein was visualized by incubating the resultant membranes with an anti-AR antibody (BD-PharMingen), followed by chemiluminescence detection (ECL Plus, Amersham). […] The resultant protein signals were quantified using densitometry and NIH ImageJ software.

The target of experiment [3] is T1, androgen receptor (AR). In words: AR degradation in LNCaP cells in the presence of cycloheximide (Western blot). It is filed as cell-based. To be noted: 20 micromolar, cycloheximide 15 micrograms/milliter. On the procedure: To determine whether the observed reduction of AR protein levels was due to protein degradation rather than inhibition of AR protein synthesis, a second set of three replicate experiments was performed. In these experiments, the protein synthesis inhibitor cycloheximide (CHX) was used to prevent the cells from synthesizing new proteins. In the absence of new AR protein synthesis, any alterations in AR levels would be mainly attributable to protein degradation. LNCaP cells were cultured in the presence and absence of ASC-J9 (20 micromolar) and in the presence and absence of cycloheximide (15 micrograms/milliter). Cells were then incubated for 0, 3, 6 and 12 hours before harvesting and analysis of AR levels by Western blot.

In a further experiment the test system is LNCaP tumor. In words: LNCaP xenograft tumor growth in nude mice. As to conditions: 100 mg/kg/day ip three times per week, 7 weeks. It is filed as in vivo. The protocol:
In the related in vivo studies, LNCaP human prostate tumor cells are xenografted into nude mice by subcutaneous injection (2×10^6 per site). Mice are subsequently treated, by intraperitoneal injection, with either the vehicle solution as control or the test compounds (ASC-J9 at a dose of 100 milligrams per kilogram body weight), three times a week for 7 weeks. Tumor volume is measured twice a week over the next 7 weeks. […] Data in FIG. 12 show two nude mice received xenografted LNCaP tumor and one treated with vehicle solution (left) and the other with ASC-J9 (right). A significant reduction in tumor size and PSA content in plasma were detected in animal received ASC-J9 treatment. Such results can be taken as a strong indication that the suppression of AR activity and the resulting reduction of tumor growth induced by AR-degrading compounds such as ASC-J9, may be translated into a practical use for treating or preventing diseases and disorders related to AR activity, such as prostate and other cancers.
Two million LNCaP tumor cells were inoculated, subcutaneously, into the left flank of nude mice. In the experimental animals, the nude mice were give an intraperitoneal (ip) injection of compound ASC-J9 at 100 mg/kg/day three times per week or with vehicle control only. After 7 weeks of treatment the tumors were excised, weighed and compared. […] In addition, PSA (prostate specific antigen) level in plasma from animal treated with ASC-J9 reduced 90% (reduce from 57.0 ng/ml to 7.6 ng/ml).

Some results are limits rather than exact numbers.

The values that follow come from US9446127B2, “Compositions including androgen receptor degradation (ARD) enhancers and methods of prophylactic or therapeutic treatment of skin disorders and hair loss” (AndroScience Corporation, priority 2007, dated 2016).

Turning to `COc1ccc(C=CC(=O)C=C(O)C=Cc2ccc(OC)c(OC)c2)cc1OC` [ASC-J9, 5-hydroxy-1,7-bis(3,4-dimethoxyphenyl)-1,4,6-heptatrien-3-one], the “time at which AR reduction was first observed” value at androgen receptor (AR) [1] (5 μM, continuous incubation) was found to be 2 days. The “AR remaining, normalized AR signal as percentage of baseline (Day 0)” value on androgen receptor (AR) [1] (5 μM, end of 5-day incubation) was roughly 10%. For the same molecule, on androgen receptor (AR) [1] (48 hours, Western blot (FIG. 7B)), the “AR protein, ARD enhancer compared with conventional anti-androgens” value is “decreased AR protein”. Besides, the “cellular concentration of AR” value on androgen receptor (AR) [2] was “significantly decreased”. At androgen receptor (AR) [3], the “time within which degradation of existing AR protein was enhanced” value is no more than 4 h. The “reduction of PSA level in plasma” value with LNCaP tumor is 90%. In addition, the “reduction in tumor size” value in the experiment on LNCaP tumor (vs vehicle control) amounted to 75%. Moreover, in the experiment with LNCaP tumor (reduced from 57.0 ng/ml), the “PSA (prostate specific antigen) level in plasma” value turned out to be 7.6 ng/mL. This molecule displayed a tumor weight in the experiment with LNCaP tumor (vehicle control 0.694 g) of 0.172 g.
